The values below come from patent publication US20170042878A1 (THE GENERAL HOSPITAL CORPORATION, priority 2012, published 2017).

Series [1] deals with C57BL/6N mice. Description: Two-day forced swim test (FST) in mice. In kind it is in vivo, mouse. How it is done: (§1) Male 10 week C57BL/6N mice (Taconic) acclimated to a holding facility one week prior to testing. A two-day FST paradigm was employed, in which mice were exposed to a 10 minute test in absence of drug, and tested the following day in presence of drug in a 6 minute test. […] All animals were drug naïve and not previously exposed to behavioral testing.
Male C57BL6N/Tac mice were purchased from Taconic Farms (Germantown, N.Y.) at 10 weeks of age. Mice were housed four mice per cage upon arrival under a 12:12 h light/dark cycle and were allowed to acclimate for approximately one week prior to behavioral procedures. Food and water were provided ad libitum. All procedures followed the National Institutes of Health Guide for the Care and Use of Laboratory Animals, and were approved by the Massachusetts Institute of Technology Animal Care and Use Committee.
Mice were tested in a two day forced swim test (FST) procedure. On day 1, all mice received mock intraperitoneal vehicle (i.p.) injections to acclimate to the injection procedure and, 30 minutes later, were placed into one of five identical cylindrical chambers (24 cm×15 cm) filled approximately halfway with warm water (26)±2° for 10 minutes with no data collected. On day 2, mice received i.p. injections 30 minutes prior to being placed in a cylinder for a 6 minute session and immobility time was scored automatically (EthoVisionXT; Noldus Information Technology; Wageningen, Netherlands) during the final 4 minutes.
For all FST behavioral experiments, the time spent immobile was the dependent variable, and data were analyzed by one-way analysis of variance (ANOVA) and Tukey post-hoc comparisons using SPSS v. 18 (IBM).

Series [2] concerns depressed patients. The note with it: cited from earlier work.
The test system of series [3] is mice. The note with it: cited from earlier work.
Series [4] relates to rats. The note with it: cited from earlier work.
The subject of series [5] is BDNF. The note with it: ketamine sub-anesthetic doses; correlated with antidepressant effect; cited from earlier work.
Series [6] deals with mTOR pathway. The note with it: ketamine 5 and 10 mg/kg i.p., cited from earlier work.
For series [7] the following is noted: in vivo; cited from earlier work.
For series [8], the system named is rabbit. The note with it: drugs injected immediately after completion of daily training sessions; cited from earlier work.
For series [9] the following is noted: ketamine injection 1 mg/kg; cited from earlier work.
Series [10] has as its system C57BL/6N mice. Description: Home cage observation of motor activation after administration, prior to FST. The note with it: scopolamine 0.5 and 1.0 mg/kg i.p. How it is done:
as §1
A dose at the low end of this range was selected (3 mg/kg i.p.) and administered to adult male C57BL/6N mice 30 min prior to the FST.

Series [11] concerns mice. The note with it: scopolamine single administration 0.1 or 0.2 mg/kg i.p.; P<0.01 or P<0.001; cited from earlier work.
The subject of series [12] is mTOR signaling. The note with it: cited from earlier work.
Series [13] has as its system NMDA receptor 1A. The note with it: rat, in vivo; cited from earlier work.
The test system of series [14] is NMDA receptor 2A. The note with it: rat, in vivo; cited from earlier work.
Series [15] deals with rats. The note with it: rat, in vivo; cited from earlier work.

SMILES strings stand for the structures. Entries after “also recorded” stand apart in the source; their conditions may differ. Where two headings read alike, the source gives them in different places.

Regarding `CNC1(c2ccccc2Cl)CCCCC1=O` (stereo not shown) [ketamine], the “reduction in immobility versus vehicle” value in series [1] (ketamine 3 mg/kg i.p. 30 min prior to FST, modest and non-significant, FIG. 1) came to 18%. The “effect on FST immobility time versus vehicle” value in series [1] (ketamine 3 mg/kg i.p. 30 minutes prior to testing, p>0.05, FIG. 1) was “modest non-significant antidepressant effect; also recorded: did not significantly reduce immobility time”. Also, in series [2] (ketamine single intravenous infusion 0.5 mg/kg (Zarate et al., 2006)), the “persistence of improvement in depression ratings” value is on record as “approximately 1 week”. For the same compound, in series [2] (ketamine single intravenous infusion 0.5 mg/kg), the “time to significant improvement in depression ratings after administration” value was 1 to 2 h. For the same compound, in [3] (ketamine 3 mg/kg i.p., within 30 minutes, mouse models of depression (Autry et al., 2011)), the “antidepressant effect in the FST” value was “exhibited an antidepressant effect”. Moreover, the “forced swim test immobility time versus vehicle” value is “reduced forced swim test immobility time” in series [4] (ketamine 10 or 15 mg/kg i.p. (Garcia et al., 2008)) and “significantly decreased” in series [4] (ketamine anesthetic dose 160 mg/kg i.p., tested 3, 7, or 10 days after treatment (Yilmaz et al., 2002)). Besides, in [4] (ketamine anesthetic dose 80 mg/kg i.p., immediately after treatment (Li et al., 2010)), the “forced swim test effect” value is “no effect”. Further, the “levels of BDNF in the hippocampus” value in series [5] is on record as “increased levels of BDNF”. For the same compound, the “mature dendritic spines of medial PFC pyramidal neurons and serotonin-mediated cortical neurotransmission” value in [6] (at 24 hours) is recorded as “concomitant increases”. In series [6] (two hours after treatment), the “levels of pre- and postsynaptic proteins” value is listed as “increased levels”. Also, the “phosphorylation and activation of mTOR pathway molecules in synaptoneurosomes from prefrontal cortex” value in series [6] (within one hour of treatment) was “increase phosphorylation and activate several molecules in the mTOR pathway”. Further, the “recognition memory aspect of task performance” value in series [7] is “dose-dependent impairment”. The “effect on conditioning of the nictitating membrane response” value in series [8] is “accelerates”. Also, in [9], the cerebral vasodilatation entry was “significant cerebral vasodilatation”.
As to `CN1[C@@H]2C[C@@H](OC(=O)[C@H](CO)c3ccccc3)C[C@H]1[C@@H]1O[C@@H]12` [scopolamine], in series [1] (scopolamine 0.1 mg/kg i.p., p>0.05, FIG. 2), the “effect on FST immobility time versus vehicle” value is recorded as “no change in immobility time versus vehicle; also recorded: did not significantly reduce immobility time”. Moreover, the “effect on FST immobility time versus vehicle” value in series [1] (scopolamine 0.5 mg/kg and 1.0 mg/kg i.p., p<0.05, likely due to non-specific motor activation, FIG. 2) is recorded as “substantially reduced immobility time”. Further, in [10], the “motor activation in the home cage after administration” value is given as “noticeably hyperactive; also recorded: visibly hyperactive”. For the same compound, the “time after which patients report improvement” value in series [2] (scopolamine 0.004 mg/kg infusion (Furey and Drevets, 2006)) is on record as “approximately 24 hours”. In series [2] (scopolamine 0.004 mg/kg infusion, assessed 3 days after treatment), the “clinical outcome in depressed patients” value is “clinical improvement”. Also, in [11], the “immobility times in the tail suspension test versus vehicle” value is “decreased immobility times”. Also, in [3] (scopolamine single administration 0.1 or 0.2 mg/kg i.p., both P<0.001), the “immobility times in the forced swim test versus vehicle” value is “decreased immobility times”. Also, the “effect on antidepressant effects of desipramine and nomifensine in the forced swim test” value in [4] (scopolamine 0.5-1.0 mg/kg i.p., desipramine 20 or 30 mg/kg i.p., nomifensine 2.5 or 5 mg/kg i.p. (Mancinelli et al., 1988)) was “potentiated the antidepressant effects”. For the same compound, in series [12], the mTOR signaling entry is on record as “rapidly activate mTOR signaling”. Besides, in series [13], the “expression of NMDA receptor 1A” value is recorded as “decrease expression”. Besides, in series [14], the “expression of NMDA receptor 2A” value is reported as “decrease expression”. Besides, in [7], the “incremental acquisition aspect of task performance” value is “dose x difficulty related impairment” and the “recognition memory aspect of task performance” value was “dose x difficulty related impairment”. Also, the “effect on conditioning of the nictitating membrane response” value in [8] is listed as “retards”. Besides, the “effect on ketamine-induced cerebral vasodilatation” value in [9] is on record as “blocked”. For the same compound, the adult neurogenesis entry in series [15] is reported as “suppress adult neurogenesis”.
